Key:
[1] = system: CD4+ T-cells isolated from ova s/c BALB/c mice spleen; assay: Automated patch clamp of CD4+ T cells with 600 nM GABA; type: cell-based, mouse; conditions: increasing concentrations of compound, 3 seconds
Protocol: Direct interaction between compounds and CD4^+ T cells may be investigated by electrophysiology. Therefore, CD4^+ T cells may be isolated from the spleen of asthmatic mice and treated with compounds during an automated patch clamp experiment.
To determine the effect of compounds on lymphocytes, CD4^+ T cells from Ova S/C mice were isolated and their interaction with compounds was measured by automated patch clamp. Splenocytes from ova s/c BALB/c mice were prepared following BD Biosciences instructions for preparation of murine splenocytes and red blood cell lysed using BD Pharm Lyse™ lysing solution (BD Biosciences, San Jose, Calif.). Cells were maintained in suspension in RPMI 1640 medium with L-glutamine (Thermo Fisher Scientific Inc., Rockford, Ill.) supplemented with 10% (v/v) fetal bovine serum, 10 μM 2-mercaptoethanol and 1% penicillin/streptomycin in the presence or absence of 100 μg/mL ovalbumin. The cells were maintained in 5% CO2, 95% humidified air at 37° C. for 48 hours. The IonFlux plate layout consists of units of 12 wells: two wells contain intracellular solution (ICS containing […], 1 mM CaCl2, 1 mM MgCl2, 11 mM EGTA, 10 mM HEPES, pH 7.2 with CsOH), one contains cells diluted in extracellular solution (ECS containing 140 mM NaCl, 5 mM […] KCl, 2 mM CaCl2, 1 mM MgCl2, 5 mM D-glucose monohydrate, and 10 mM HEPES, pH 7.4 with NaOH), eight contain the compounds of interest diluted in ECS, and one well is for waste collection. Cells are captured from suspension by applying suction to microscopic channels in ensemble recording arrays. Once the array is fully occupied, the applied suction breaks the membranes of captured cells, which establishes whole cell voltage clamp. For compound applications, pressure is applied to the appropriate compound wells, which introduces the compound into the extracellular solution rapidly flowing over the cells. For recording GABAAR induced currents, cell arrays were voltage clamped at a hyperpolarizing holding potential of −50 mV. Prior to use on the automated patch clamp, cells were centrifuged at 380 g for 5 minutes and resuspended gently in ECS. This was repeated two more times before the cells were dispensed into the plate. GABA and muscimol were diluted to appropriate concentrations in ECS to appropriate concentrations before application and data recorded. […] The concentration-dependent current responses of CD4+ T-cells in the presence of 600 nM GABA and increasing concentration of compounds were carried out with an N of 16 and normalized to the current response of 600 nM GABA.

[2] = Microsomal stability, mouse liver microsomes; type: in vitro ADME; conditions: 10 μM compound
Protocol: The metabolic stability of compounds in vivo can be estimated with the stability of compounds in the presence of liver microsomes. Therefore, 4 μL of 1 mM DMSO solution of test compound at a final concentration of 10 μM were preincubated at 37° C. for 5 minutes on a digital heating shaking dry bath (Fischer scientific, Pittsburgh, Pa.) in a mixture containing 282 μL of water, 80 μL of phosphate buffer (0.5 M, pH 7.4) 20 μL of NADPH Regenerating System Solution A (BD Bioscience, San Jose, Calif.) and 4 μL of NADPH Regenerating System Solution B (BD Bioscience, San Jose, Calif.) in a total volume of 391.2 μL. Following preincubation, the reaction was initiated by addition of 8.8 μL of either human liver microsomes (BD Gentest, San Jose, Calif.) or mouse liver microsomes (Life technologies, Rockford, Ill.) at a protein concentration of 0.5 mg/mL. Aliquots of 50 μL were taken at time intervals of 0 (without microsomes), 10, 20, 30, 40, 50 and 60 minutes. Each aliquot was added to 100 μL of cold acetonitrile solution containing 1 μM of verapamil HCL as internal standard. This was followed by sonication for 10 seconds and centrifugation at 10,000 rpm for 5 minutes. 100 μL of the supernatant was transferred into Spin-X HPLC filter tubes (Corning Incorporated, NY) and centrifuged at 13,000 rpm for 5 minutes. The filtrate was diluted 100-fold and subsequently analyzed by LC-MS/MS with Shimadzu LCMS 8040, (Shimadzu Scientific Instruments, Columbia, Md.). The ratio of the peak areas of the internal standard and test compound was calculated for every time point and the natural log of the ratio were plotted against time to determine the linear slope (k). The metabolic rate (k*C0/C), half-life (0.693/k), and […] (V*k) were calculated, where k is the slope, C0 is the initial concentration of test compound, C is the concentration of microsomes, and V is the volume of incubation in μL per microsomal protein in mg. All experiments were repeated two time in triplicates.

| SMILES | GABA-induced membrane current of CD4+ T-cells [1] | MLM % remaining after 60 min [2] [%] |
| --- | --- | --- |
| C[C@H]1N=C(c2ccccc2F)c2cc(Br)ccc2-n2cnc(C(=O)O)c21 [GL-II-93, (R)-8-bromo-6-(2-fluorophenyl)-4-methyl-4H-benzo[f]imidazo[1,5-a][1,4]diazepine-3-carboxylic acid] | evoked a very pronounced GABA-induced transmembrane current | – |
| CCOC(=O)c1ncn2c1[C@@H]1CCCN1C(=O)c1cc(O)ccc1-2 [RJ-02-50, ethyl (S)-7-hydroxy-9-oxo-11,12,13,13a-tetrahydro-9H-benzo[e]imidazo[5,1-c]pyrrolo[1,2-a][1,4]diazepine-1-carboxylate] | potentiated the GABA-induced membrane current more than SH-053-2F′F—R-CH3-Acid | 91.1 ± 0.1 |
| O=C1c2cc(O)ccc2-n2cnc(-c3cnco3)c2[C@@H]2CCCN12 [RJ-03-30, (S)-7-hydroxy-1-(oxazol-5-yl)-11,12,13,13a-tetrahydro-9H-benzo[e]imidazo[5,1-c]pyrrolo[1,2-a][1,4]diazepin-9-one] | evoked a very pronounced GABA-induced transmembrane current | 80.0 ± 0.3 |
| C#Cc1ccc2c(c1)C(c1ccccc1F)=N[C@H](C)c1c(C(=O)O)ncn1-2 [SH-053-2′F-R-CH3-Acid, (R)-8-ethynyl-6-(2-fluorophenyl)-4-methyl-4H-benzo[f]imidazo[1,5-a][1,4]diazepine-3-carboxylic acid] | RJ-02-50 potentiated the GABA-induced membrane current more than SH-053-2F′F—R-CH3-Acid | 89.0 ± 0.3 |
